Earlier results as cited in patent publication US20030181473A1, “Farnesyl protein transferase inhibitor combinations with taxane compounds” (priority 2000, published 2003).

Columns and labels:
human tumor cells = details: combination of paclitaxel and the farnesyl transferase inhibitor, in vitro
colon cancer (LoVo) = details: combination of paclitaxel and the farnesyl transferase inhibitor; mouse colon cancer (LoVo) model

For Cn1cncc1C(N)(c1ccc(Cl)cc1)c1ccc2c(c1)c(-c1cccc(Cl)c1)cc(=O)n2C (single isomer, unassigned; (+)) [(+)-6-[amino(4-chlorophenyl)(1-methyl-1H-imidazol-5-yl)methyl]-4-(3-chlorophenyl)-1-methyl-2(1H)-quinolinone], the “anti-tumor effect of the combination” value (human tumor cells) is given as “additive anti-tumor effect” and the “anti-tumor effect of the combination” value (colon cancer (LoVo)) is given as “additive anti-tumor effect”.
